Data: patent US20160040128A1, “METHOD” (PCI BIOTECH AS, priority 2013, published 2016)

Tests used:
[1] = test system: DCs; test: Activation of DCs: cytokine secretion (TNF-α, IL-6, IL-12, IL-1β) by ELISA; type: cell-based, mouse
Procedure: (§1) The cells were then washed and cultured in Amphinex- and OVA-free medium for another 2 hours before being treated with Lumisource® light for 3 minutes. The DCs were then cultured overnight before collection of supernatants for analysis of the cytokines TNF-α (a), IL-6 (b), IL-12 (c) and IL-1β (d). To measure the expression of CD80 by flow cytometry, DCs were cultured with 0, 0.1 or 1 μg/ml Amphinex and 0 or 10 μg/ml OVA as indicated (e). The histograms are representative of triplicates and show cells that were gated on viable and CD11c-positive cells. Arrows indicate samples that were treated with light for 3 min.
(§2) The DC viability was tested 2 hours after the PCI treatment by staining the cells with propidium iodide and Annexin-V to identify necrotic and apoptotic cells, respectively, which were analysed by flow cytometry (FACSCanto from BD Biosciences, San Jose, USA). The analysis was performed using the FlowJo 8.5.2 software from Tree Star, Inc. (Ashland, Oreg.). Activation of DCs was further tested by measuring the secretion of TNF-α, IL-6, IL-12 and IL-1β by ELISA (eBioscience) and the expression of MHC I, MHC II, CD40, CD80, CD83 and CD86 by flow cytometry. Briefly, the DCs were incubated for 2 hours with Amphinex or lipopolysaccharide E. coli clone 026:B6 (Sigma Aldrich), washed, incubated for another 2 hours in fresh medium, illuminated for 3 min with Lumisource® light, and incubated. Cytokines were analysed by ELISA from supernatants of 24 hours cultures, and flow cytometry was done on cells after 48 hours incubation. All FACS antibodies were purchased from BD Pharmingen (Basel, Switzerland) or from eBioscience.
We further tested the activation of DCs and their innate immune reactions after PCI treatment. Adjuvants and especially pathogen-associated molecular patterns (PAMPs) typically activate DCs and other antigen presenting cells via stimulation of pathogen recognition receptors such as Toll-like receptors, NOD-like receptors, C-type lectin and mannose receptors. Such activation then is typically characterised by secretion cytokines important for stimulation and regulation of further innate as well as adoptive immune responses. […] Although weak, the adjuvant effect with regard to IL-6 seemed light dependent, as IL-6 secretion was not increased by Amphinex or light alone, but only by their combination. However, the effect was much weaker than after stimulation of DCs with 1 μg/ml lipopolysaccharide (LPS). While stimulation of TNF-α and IL-6 secretion characterises the general adjuvant potential of a compound or a treatment, stimulation of IL-12 and IL-1β illustrates the potential to trigger Th1 T-cell responses and inflammasome, respectively.

[2] = test system: Bone-marrow derived murine DCs; test: PCI-induced apoptosis and cell death of DCs, Annexin-V / propidium iodide flow cytometry; type: cell-based; conditions: 0.2 μg/ml Amphinex, 435 nm light 1 to 10 minutes, 2 hours rest at 37° C.
Procedure: The DCs were then washed and seeded into culture plates and treated with light for various time periods (minutes) as indicated. The cells were cultured for another 2 hours (or overnight) and the viability was analysed by flow cytometry after staining with Annexin-V and propidium iodide (PI). The results are illustrated as representative dotbiots (a) or summarised in histograms (b).
The DC viability was tested 2 hours after the PCI treatment by staining the cells with propidium iodide and Annexin-V to identify necrotic and apoptotic cells, respectively, which were analysed by flow cytometry (FACSCanto from BD Biosciences, San Jose, USA). The analysis was performed using the FlowJo 8.5.2 software from Tree Star, Inc. (Ashland, Oreg.). […] Cytokines were analysed by ELISA from supernatants of 24 hours cultures, and flow cytometry was done on cells after 48 hours incubation. […]
Therefore in a series of experiments, we analysed cell death and apoptosis by flow cytometry after staining of cells with propidium iodide and fluorescence-labelled anti-Annexin-V. A concentration of 0.2 μg/ml Amphinex induced light-dose dependent apoptosis and cell death upon illumination with 435 nm light for 1 to 10 minutes (FIG. 2a); the DCs were rested at 37° C. for 2 hours after light treatment before staining and acquisition. […]

[3] = test system: DCs; test: Activation of DCs: surface marker expression by flow cytometry; type: cell-based, mouse
Procedure: as §1, §2
DC constitutively expressed the co-stimulatory molecules CD80 and CD86 (FIG. 3e; CD80 only shown). […] The expression of CD40, MHC I and MHC II was not affected by Amphinex treatment (not shown).

[4] = test system: bone-marrow-derived murine DCs; test: In vitro MHC class-I antigen presentation: OVA-pulsed, Amphinex- and light-treated DCs co-cultured with OT-1 CD8 T cells, IFN-γ ELISA; type: cell-based, mouse
Procedure: The DCs were washed and illuminated for the indicated time intervals before adding 100,000 purified CD8 T cells from OT-1 mice. […] After washing, the DCs were illuminated for 15 seconds.
The antigen OVA (Sigma Aldrich, Buchs, Switzerland) and the photosensitiser Amphinex (TPCS2a, PCI Biotech, Lysaker, Norway) were incubated with DCs using petri dishes. Typically, DCs were pulsed for 2 h with OVA and Amphinex. The DCs were then collected and washed by centrifugation before re-suspension in medium and further incubation on petri dishes for 2 h in Amphinex- and OVA-free medium; this allows removal of Amphinex from the outer plasma membrane. The DCs were then washed, counted and plated in round-bottom 96-well plates (typically 100,000 DCs per well), and the cells were exposed to light (435 nm) using LumiSource® (PCI Biotech) for different time intervals. Sex-matched CD8-purified OT-1 cells were then added to the DC plates at 100,000 cells per well and incubated at 37° C. overnight. The secretion of IFN-γ into supernatants was measured using ELISA according to the protocol from eBioscience (Ready-SET-Go!®, Bender MedSystems, Vienna, Austria).
After removing the photosensitiser and antigen by washing and incubation for another 2 hours, the DCs were transferred to 96-well plates at 100,000 cells per well and treated with light at different time-doses before admixing an equal number of purified OT-1 CD8 T cells. […] Of note, antigen presentation and IFN-γ secretion of soluble OVA was improved by Amphinex alone, but not by light alone (FIG. 1a). To further test the sensitivity of DCs to PCI treatment, equivalent assays were performed using a single light dose of 15 seconds, but a wide range of Amphinex doses (0.0005-0.5 μg/ml), namely 0.003, 0.006, 0.0125, 0.025, 0.05, 0.1 and 0.2 μg/ml.

[5] = PCI treatment: 1 μg/ml Amphinex plus 3 min light
[6] = PCI treatment: 1 μg/ml Amphinex plus 3 min light, measured after 22 hours incubation

Disulfonated tetraphenyl chlorin [Amphinex]
IL-6 secretion ([1]; Amphinex alone, without light): not increased | cytokine-stimulating (adjuvant) effect compared with 1 μg/ml lipopolysaccharide (LPS) ([1]; PCI treatment (Amphinex plus light) vs 1 μg/ml LPS): much weaker | IL-1β secretion [1, 5]: neither were notably stimulated | IL-12 secretion [1, 5]: neither were notably stimulated | IL-6 secretion [1, 6]: weak stimulation | TNF-α secretion [1, 6]: weak stimulation | amount of cells dying [2]: 50-60% | apoptotic cells [2]: approx. 20% | CD40 expression ([3]; Amphinex treatment): not affected | MHC I expression ([3]; Amphinex treatment): not affected | MHC II expression ([3]; Amphinex treatment): not affected | CD80 expression ([3]; Amphinex-treated DCs also treated with light 3 min, with or without OVA, gated on viable CD11c-positive cells): down-regulation | immune responses (IFN-γ secretion), 0.05 μg/ml compared with 0.2 μg/ml Amphinex ([4]; 0.05 vs 0.2 μg/ml Amphinex): stronger immune responses | antigen presentation (IFN-γ secretion by OT-1 CD8 T cells) ([4]; Amphinex 0.025 and 0.05 μg/ml, light 15 seconds): facilitated antigen presentation | antigen presentation and IFN-γ secretion of soluble OVA ([4]; Amphinex alone, without light): improved | antigen presentation ([4]; Amphinex combined with high light doses): clear detrimental effect | IFN-γ secretion by OT-1 CD8 T cells ([4]; Amphinex doses higher than 0.05 μg/ml, light 15 seconds): declined | MHC-1 antigen presentation as measured by IFN-γ secretion ([4]; DCs pulsed 2 h with OVA with 0.05 or 0.2 μg/ml Amphinex vs OVA only, IFN-γ after 24 hours): significantly increased
